Test results as given in PubChem BioAssay AID2060890 (Molecular Pharmacology Branch, DTP, NCI, 2025).
Several values for one entry are separate records, joined by “and”; a condition that tells them apart may be missing. Identical values can stand only once.

Test system: LG0703-F948-PDC complex spheroid viability
Assay: Anticancer human tumor LG0703-F948-PDC patient-derived lung adenocarcinoma cell line growth inhibition [RAS]
Conditions: for viability, T/C: stronger effect = lower value
Source text: RAS pathway inhibitors in Combinations in Complex Spheroids
A high-throughput screen of multi-cell type tumor spheroids was designed to identify active combinations of RAS pathway inhibitors and targeted small molecules. Complex spheroids include a stromal component modeled by human endothelial cells (HUVEC) and fibroblasts modeled by human mesenchymal stem cells (MSCs). The concentration ranges selected for each drug and investigational agent were based upon clinically achievable concentrations if the clinical Cmax of the agent was known.
Compounds. The drugs and investigational agents: abemaciclib (NSC768073), cobimetinib (NSC768068), divarasib (GDC6063, NSC841802), docetaxel (NSC628503), GDC-1971 (RLY-1971, NSC841576), gemcitabine (NSC613327), inavolisib (NSC800729), ipatasertib (NSC767898), KB-0742 (NSC834161), MRTX-1133 (NSC836407), osimertinib (NSC779217), RMC-4630 (NSC839698), RMC-6236 (NSC851965), RMC-6291 (NSC852671), Ro-3306 (NSC812927), sapanisertib (NSC764658), SN-38 (NSC673596), staurosporine (NSC755774), SY5609 (NSC837396), and tovorafenib (DAY101, NSC766906), were obtained from the National Cancer Institute (NCI) Developmental Therapeutics Program Chemical Repository. The FDA-approved anticancer drug set is available from the NCI Developmental Therapeutics Program. […] The stock solutions were prepared in dimethyl sulfoxide (DMSO, Sigma-Aldrich, St. Louis, MO, cat. D2650) at 800-fold the tested concentration and stored at -70 degrees C prior to their use. All drugs and investigational agents were tested over a range starting from a high concentration at or near the clinical Cmax and decreasing in half-log increments. If the clinical Cmax for an agent had not been determined, the highest concentration tested was 10 microM.
Cell Culture. All cells were maintained in an incubator at 37 degrees C and 5% CO2 with 95% humidity. The PDC lines were cultured according to standard operating procedures established by the NCI PDMR. All PDCs were thawed and cultured in Matrigel-coated flasks prepared with a working solution of 1X Ham's F-12 nutrient mix, without supplementation (Invitrogen, Waltham, MA, cat. 11765054), 100 U/mL penicillin-streptomycin (Invitrogen, cat. 15140122), and 2.5% Matrigel (Corning Inc., Corning, NY, cat. 354248) for the first three passages. The 362531-283-R-J2-PDC and 782815-120-R-J1-PDC lines were cultured in 6C/Colon 1B media, which includes advanced DMEM/F-12 (Thermo Fisher Scientific, cat. 12634028), 10 mM HEPES (Thermo Fisher Scientific, cat. 15630080), 1X GlutaMAX supplement (Thermo Fisher Scientific, cat. 35050061), 0.1 mg/mL primocin (InvivoGen, San Diego, CA, cat. ant-pm-2), 10% defined fetal bovine serum, heat inactivated (HyClone Laboratories Inc., Logan, UT, cat. SH30070.03HI), 50% L-WRN conditioned media (ATCC, cat. CRL-3276), 1.25 mM N-Acetyl-L-cysteine (Sigma-Aldrich, cat. A9165), 10 mM nicotinamide (Sigma-Aldrich, cat. N0636), 1X B-27 supplement (Thermo Fisher Scientific, cat. 17504044), 1X N-2 supplement (Thermo Fisher Scientific, cat. 17502048), 50 ng/mL human EGF (Thermo Fisher Scientific, cat. PHG0311), and 10 microM Y-27632 dihydrochloride (Tocris Bioscience, cat. 1254). The K12877-001-R-J1-PDC line was cultured in 6I media, which includes all 6C/Colon 1B media plus 10 ng/mL human FGF-10 (PeproTech, cat. 100-26), 1 ng/mL human FGF-2 (PeproTech, cat. 100-18B), 1 µM prostaglandin E2 (Tocris Bioscience, cat. 2296), […] hydrocortisone (Sigma-Aldrich, cat. H4001), and […] bovine insulin (Sigma-Aldrich, cat. I6634). The K86415-001-R-J1-PDC line was cultured in 6D media, which includes all 6C/Colon 1B media components minus the L-WRN conditioned media. The 485176-168-R4-J1-PDC was cultured in PANC media, which includes all 6C/Colon 1B media plus 100 ng/mL human FGF-10 (PeproTech, cat. 100-26), 500 nM SB-431542 (Selleckchem, cat. S1067), and 10 nM gastrin (Tocris Bioscience, cat. 3006). […]

[1] = compound alone, run of 09/09/2024
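Also: spheroids exposed to agents for 7 days.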
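For viability, T/C in this document: 100% = DMSO vehicle wells.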

| IC50 (curve of compound) | Compound | viability, T/C (compound 0.1 µM) | viability, T/C (compound 0.316 µM) | viability, T/C (compound 3.16 µM) | viability, T/C (compound 10 µM) | viability, T/C (compound 1 µM) | viability, T/C (compound 0.0316 µM) | other results |
| --- | --- | --- | --- | --- | --- | --- | --- | --- |
| 10.1 nM [middle of 4 runs] | C=CC(=O)Nc1cc(Nc2nccc(-c3cn(C)c4ccccc34)n2)c(OC)cc1N(C)CCN(C)C | 16.2% [middle of 4 runs] | 17.2% [middle of 4 runs] | – | – | 12.8% [middle of 4 runs] | 21.9% [middle of 4 runs] | viability, T/C (compound 0.00316 µM): 90.6% [middle of 4 runs]; viability, T/C (compound 0.01 µM): 50.2% [middle of 4 runs] |
| 946 nM [middle of 4 runs] | CC(C)NCC(C(=O)N1CCN(c2ncnc3c2C(C)CC3O)CC1)c1ccc(Cl)cc1 (stereo not given) | 90.6% [middle of 4 runs] | 70.8% [middle of 4 runs] | 40.3% [middle of 4 runs] | 32.6% [middle of 4 runs] | 48% [middle of 4 runs] | – | – |
| 6.31 nM [middle of 4 runs] | CC(C)n1nc(-c2ccc3oc(N)nc3c2)c2c(N)ncnc21 | 17% [middle of 4 runs] | – | – | – | – | 23.2% [middle of 4 runs] | viability, T/C (compound 0.000316 µM): 104% [middle of 4 runs]; viability, T/C (compound 0.00316 µM): 65.1% [middle of 4 runs]; viability, T/C (compound 0.01 µM): 40.8% [middle of 4 runs] |
| > 300 nM | CC1(C)CCC(Nc2ncc(C(F)(F)F)c(-c3c[nH]c4c(P(C)(C)=O)c(C#N)ccc34)n2)CN1 (stereo not given) | – | – | – | – | – | – | viability, T/C (compound 0.000949 µM): 91% [middle of 4 runs]; viability, T/C (compound 0.003 µM): 76.9% [middle of 4 runs]; viability, T/C (compound 0.00949 µM): 68.7% [middle of 4 runs]; viability, T/C (compound 0.03 µM): 67.9% [middle of 4 runs]; viability, T/C (compound 0.0949 µM): 65.8% [middle of 4 runs]; viability, T/C (compound 0.3 µM): 67.9% [middle of 4 runs] |
| 1520 nM and 1080 nM and 1380 nM | CCC(CC)c1cc(NC2CCC(N)C2)n2nccc2n1 (stereo not given) | 94.6% and 93.7% and 90% | 75.7% and 85.7% and 97% | 4.37% and 1.19% and 2.28% | 0.41% and 0.27% and 0.38% | 76.4% and 54.7% and 68.8% | 85.9% and 96.8% and 101% | – |
| > 1000 nM | CCN1CCN(Cc2ccc(Nc3ncc(F)c(-c4cc(F)c5nc(C)n(C(C)C)c5c4)n3)nc2)CC1 | 85.1% [middle of 4 runs] | 92.1% [middle of 4 runs] | – | – | 83.4% [middle of 4 runs] | 84.7% [middle of 4 runs] | viability, T/C (compound 0.00316 µM): 110% and 103% (2×) and 94.4%; viability, T/C (compound 0.01 µM): 91.3% [middle of 4 runs] |
| 348 nM and 399 nM and 337 nM | Cc1nc(N2CCC3(CC2)COC(C)C3N)c(CO)nc1Sc1ccnc(N)c1Cl (stereo not given) | 68.1% and 83.2% and 66.4% | 50.8% and 48.3% and 51.7% | 22% and 21.2% and 25.2% | 11.4% and 12.8% and 12.1% | 36.9% and 35.6% and 34.5% | 91.6% and 86.5% and 84.2% | – |
| < 31.6 nM and 59 nM | NC1c2ccccc2OC12CCN(c1cnc3c(N4CCCc5ncccc54)n[nH]c3n1)CC2 (stereo not given) | 31.6% [middle of 4 runs] | 20.4% [middle of 4 runs] | 5.94% [middle of 4 runs] | 2.92% [middle of 4 runs] | 13.1% [middle of 4 runs] | 50.5% [middle of 4 runs] | – |

Second part, the compound before the results:

| Compound | IC50 (curve of compound) | viability, T/C (compound 0.1 µM) | viability, T/C (compound 0.316 µM) | viability, T/C (compound 3.16 µM) | viability, T/C (compound 10 µM) | viability, T/C (compound 1 µM) | viability, T/C (compound 0.0316 µM) | other results |
| --- | --- | --- | --- | --- | --- | --- | --- | --- |
| C#Cc1c(F)ccc2cc(O)cc(-c3ncc4c(N5CC6CCC(C5)N6)nc(OCC56CCCN5CC(F)C6)nc4c3F)c12 (stereo not given) | – | 98.8% [middle of 8 runs] | 85.7% [middle of 8 runs] | 61% [middle of 8 runs] | 56.6% [middle of 8 runs] | – | – | IC50 [1]: > 10000 nM and 9290 nM |
| C=CC(=O)N1CCN(c2nc(OCC3CCCN3C)nc3c(F)c(-c4nc(N)cc(C)c4C(F)(F)F)c(Cl)cc23)C(C)C1 (stereo not given) | > 1000 nM | 106% [middle of 11 runs] | – | – | – | 112% [middle of 11 runs] | – | viability, T/C (compound 0.01 µM): 102% [middle of 11 runs]; IC50 [1]: > 1000 nM |
| CC(=O)OC12COC1CC(O)C1(C)C(=O)C(O)C3=C(C)C(OC(=O)C(O)C(NC(=O)OC(C)(C)C)c4ccccc4)CC(O)(C(OC(=O)c4ccccc4)C21)C3(C)C (stereo not given) | < 31.6 nM | 33.9% [middle of 4 runs] | 39.8% [middle of 4 runs] | 43.2% [middle of 4 runs] | 44.4% [middle of 4 runs] | 39.7% [middle of 4 runs] | 37.1% [middle of 4 runs] | – |
| CC(Nc1ccc2c(c1)OCCn1cc(N3C(=O)OCC3C(F)F)nc1-2)C(N)=O (stereo not given) | – | 88.9% [middle of 4 runs] | – | 45% [middle of 4 runs] | 27.8% [middle of 4 runs] | 56.3% [middle of 4 runs] | 96.2% [middle of 4 runs] | – |
| CC1(O)CCCC1n1c(=O)c(C(F)F)cc2cnc(NC3CCN(S(C)(=O)=O)CC3)nc21 (stereo not given) | – | 94.2% [middle of 4 runs] | 86.8% [middle of 4 runs] | – | – | 96% [middle of 4 runs] | – | – |
| CCc1c2c(nc3ccc(O)cc13)-c1cc3c(c(=O)n1C2)COC(=O)[C@]3(O)CC | – | – | – | – | – | – | – | viability, T/C (compound 0.003 µM): 98.3% [middle of 4 runs]; viability, T/C (compound 0.03 µM): 65.8% [middle of 4 runs]; viability, T/C (compound 0.3 µM): 31.6% [middle of 4 runs] |
| CCn1c(-c2cc(N3CCN(C)CC3)cnc2C(C)OC)c2c3cc(ccc31)-c1csc(n1)CC(NC(=O)C1CC1C)C(=O)N1CCCC(N1)C(=O)OCC(C)(C)C2 (stereo not given) | – | – | – | – | – | – | – | viability, T/C (compound 0.003 µM): 46.6% [middle of 8 runs]; viability, T/C (compound 0.00949 µM): 25.5% [middle of 8 runs]; viability, T/C (compound 0.03 µM): 14% [middle of 8 runs]; viability, T/C (compound 0.0949 µM): 11.6% [middle of 8 runs]; viability, T/C (compound 0.3 µM): 12.3% [middle of 8 runs]; IC50 (compound alone, run of 08/26/2024): 2.7 nM [middle of 8 runs] |
| CCn1c(-c2cccnc2C(C)OC)c2c3cc(ccc31)N1CCOC(CC(NC(=O)C(C(C)C)N(C)C(=O)C3(F)CCN(C(=O)C#CC(C)(C)N(C)C)CC3)C(=O)N3CCCC(N3)C(=O)OCC(C)(C)C2)C1 (stereo not given) | – | – | – | – | – | – | – | viability, T/C (compound 0.000949 µM): 99.8% [middle of 8 runs]; viability, T/C (compound 0.00949 µM): 101% [middle of 8 runs]; viability, T/C (compound 0.03 µM): 101% [middle of 8 runs]; viability, T/C (compound 0.0949 µM): 82.6% [middle of 8 runs]; viability, T/C (compound 0.3 µM): 50.1% [middle of 8 runs] |
| C[C@@H](NC(=O)c1ncnc(N)c1Cl)c1ncc(C(=O)Nc2cc(C(F)(F)F)c(Cl)cn2)s1 | > 10000 nM | 120% [middle of 4 runs] | 103% [middle of 4 runs] | 102% [middle of 4 runs] | – | 114% [middle of 4 runs] | 102% and 115% and 92.8% | – |
| Nc1ccn(C2OC(CO)C(O)C2(F)F)c(=O)n1 (stereo not given) | – | 37.3% [middle of 4 runs] | 37.3% [middle of 4 runs] | – | – | 32.1% [middle of 4 runs] | 38.3% [middle of 4 runs] | viability, T/C (compound 0.00316 µM): 73.4% [middle of 4 runs] |
| O=C(c1ccc(F)c(F)c1Nc1ccc(I)cc1F)N1CC(O)([C@@H]2CCCCN2)C1 | – | 42.3% [middle of 4 runs] | 30.9% [middle of 4 runs] | – | – | 25.4% [middle of 4 runs] | 57.7% [middle of 4 runs] | viability, T/C (compound 0.00316 µM): 96.7% [middle of 4 runs]; viability, T/C (compound 0.01 µM): 73.4% [middle of 4 runs] |
